Values quoted from earlier work, collected in patent publication EP0839024B1, “MONENSIN FORMULATIONS” (Elli Lilly & Co.(NZ)Limited, priority 1995, dated 1997).

Legend:
[1] = Example 1 of EP 0,139,595: 250 g mycelium containing 10% monensin, 1250 cc propylene glycol, room temperature, 2 hours, ultrasound; cited from earlier work
[2] = as indicated in EP 0,139,595 (monensin and its sodium salt) and US Patent 3,715,372 (lasalocid); cited from earlier work

SMILES	monensin found in solution in propylene glycol [1] [%]	solubility in water [2]
CC[C@@]1([C@@H]2O[C@@H]([C@H]3O[C@@](O)(CO)[C@H](C)C[C@@H]3C)C[C@@H]2C)CC[C@H]([C@]2(C)CC[C@]3(C[C@H](O)[C@@H](C)[C@@H]([C@@H](C)[C@@H](OC)[C@H](C)C(=O)O)O3)O2)O1 [monensin]	50	
CC[C@@H](C(=O)[C@@H](C)[C@@H](O)[C@H](C)CCc1ccc(C)c(O)c1C(=O)O)[C@H]1O[C@](CC)([C@H]2CC[C@](O)(CC)[C@H](C)O2)C[C@@H]1C [lasalocid]		completely insoluble
